Assay [1] concerns the target T1, recombinant human TGF-β1 (Homo sapiens, UniProt P01137).
T1 construct: purchased R&D systems
The experiment in a line: SPR intermolecular interaction test, TGF-β1 immobilized on CM3 sensor chip (Biacore T200). In kind it is binding. Particulars: Single Cycle Kinetics, human TGF-β1. How it is done:
In this Example, (1) the activity of binding to TGF-β for various peptides consisting of the amino acid sequences set forth in SEQ ID NOs: 2-33 synthesized in Examples 1 to 5 and 7 was evaluated. (2) The activity and selectivity of binding of the peptide consisting of the amino acid sequence set forth in SEQ ID NO: 13 synthesized in Example 2 against two isoforms of TGF-β (TGF-β1 and β2) were checked. For this purpose, the intermolecular interaction of each peptide against TGF-β was tested by surface plasmon resonance (SPR) in the method described below. Specific test methods are described below.
A CM3 sensor chip (Global Life Science Technologies Japan Co., Ltd.) was inserted into a BiacoreT200 (Global Life Science Technologies Japan Co., Ltd.). Three priming runs were performed using running buffer: HBS-EP+ (Global Life Science Technologies Japan Co., Ltd.). The system was then equilibrated at a flow rate of 30 μL/min.
Subsequently, 50 μL of 60 mM EDC solution (Global Life Science Technologies Japan Co., Ltd.) and 50 μL of 650 mM NHS solution (Global Life Science Technologies Japan Co., Ltd.) were mixed. Next, the reaction was carried out at a flow rate of 10 μL/min for 420 seconds. Then, 150 μL of 0.2 μM TGF-β solution diluted in 10 mM acetic acid solution (pH 5.0) was prepared and reacted at a flow rate of 10 μL/min for 420 seconds to immobilize TGF-β on the CM3 sensor chip. TGF-β was human-derived TGF-β1 or β2 (recombinant human TGF-β1, 2) and was obtained from R&D systems. After immobilization, capping was performed by reacting with 1.0 M ethanolamine aqueous solution (Global Life Science Technologies Japan Co., Ltd.) at a flow rate of […] for 420 seconds.
A liquid prepared by dissolving each peptide at 10 mM in DMSO solution was diluted with running buffer to prepare a peptide-dissolved solution at a final concentration of 10 μM. Subsequently, 50 nM, 25 nM, 12.5 nM, 5 nM, and 2.5 nM peptide solutions were prepared. Using the above samples, the kinetics of each peptide against TGF-β was obtained by SPR measurement.
The kinetics evaluation model was Single Cycle Kinetics, and curve fitting was performed using Biacore T200 Evaluation Software Version 3.0 (Global Life Science Technologies Japan Co., Ltd.). The binding of various peptides to TGF-β was evaluated by performing least-squares curve fitting on the obtained sensorgram to calculate the KD value.

Assay [2] has as its target T1, recombinant human TGF-β1. The experiment in a line: SBE reporter assay in SBE reporter-HEK293 cells, TGF-β1 stimulation. In kind it is cell-based. Particulars: TGF-β1 0.13 nM, 18 hours; for inhibition at 62 pM: peptide 0.062 nM; for inhibition at 0.000185 µM: peptide 0.185 nM; for inhibition at 0.00056 µM: peptide 0.56 nM; for inhibition at 0.0017 µM: peptide 1.7 nM; for inhibition at 0.005 µM: peptide 5.0 nM; for inhibition at 0.015 µM: peptide 15.0 nM. The source says: The inhibitory activity of the peptide can be calculated without limitation while the maximum signal induced by TGF-β is set to 0% inhibition and no stimulation is set to 100% inhibition. When the peptide is used at an appropriate concentration, for example, at the optimal concentration, the inhibitory activity is not limited but the inhibition is 5% or more, 10% or more, 20% or more, 30% or more, 40% or more, 50% or more, 60% or more, 70% or more, 80% or more, or 90% or more.
In this Example, the TGF-β1 inhibitory activity of the peptide of the present invention consisting of the amino acid sequence set forth in SEQ ID NOs: 2-33 synthesized in Examples 1 to 5 and 7 was evaluated by an SBE reporter assay using the SBE reporter-HEK293 cell system (BP Bioscience) as follows.
SBE reporter-HEK293 cells were cultured in E-MEM (Wako) containing 10% FBS (Sigma). The cells were detached using Accutase (Innovative Cell Technologies), suspended in E-MEM containing 0.5% FBS, seeded onto a 96-well plate(s) at a concentration of 45,000 cells per well, and cultured overnight. The next day, the peptide was added and allowed to stand for 20 min, and recombinant human TGF-β1 (R&D systems) or recombinant human TGF-β2 (R&D systems) was then added at 0.13 nM and cultured for 18 hours.
Thereafter, luciferase assay ONE-Glo reagent was added to each well and the plate was shaken for 5 min. A SpectraMax Paradigm multimode microplate reader (Molecular Devices) was then used for signal detection. The obtained signals were analyzed by GraphPad Prism. The inhibitory activity of the peptide was calculated while the maximum signal induced by TGF-β was set to 0% inhibition and no stimulation was set to 100% inhibition.

pKd: −log10 of the molar value. Starred links: 1 amine or outer side, 2 acyl side, 3 side chain; linkers in the order of their positions; H or OH if unused. Positions of bridges follow the written chain, without caps; N, C: chain ends. Non-standard residues stand in square brackets, D forms with d. Residues, ends and D or L forms follow the SMILES beside them. Groups on a side chain read outwards from the residue. *: point of attachment. Meglumine = CN(C[C@H](O)[C@@H](O)[C@H](O)[C@H](O)CO)*; Piperazinyl(4-CH2COOH) = O=C(O)CN1CCN(*)CC1; 1Nal = N[C@@H](Cc1cccc2ccccc12)C(=O)O; Gly(NCH2CH2Ph) = O=C(O)CNCCc1ccccc1; 4Pal = N[C@@H](Cc1ccncc1)C(=O)O; CO = O=C([*:1])[*:2]

T1 sequence (P01137 279-390 limits assumed): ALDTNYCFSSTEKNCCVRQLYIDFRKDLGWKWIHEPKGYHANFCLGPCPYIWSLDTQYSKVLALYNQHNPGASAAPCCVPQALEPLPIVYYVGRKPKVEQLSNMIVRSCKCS

`CC(C)[C@@H]1NC(=O)CN(CCc2ccccc2)C(=O)[C@H](CCCCNC(=O)N(C)C[C@H](O)[C@@H](O)[C@H](O)[C@H](O)CO)NC(=O)[C@H](CC(=O)O)NC(=O)[C@H](Cc2ccncc2)NC(=O)[C@H](C(C)C)NC(=O)[C@H](CC(N)=O)NC(=O)[C@H](CCCCNC(=O)N(C)C[C@H](O)[C@@H](O)[C@H](O)[C@H](O)CO)NC(=O)[C@H](C(C)C)NC(=O)[C@H](Cc2cccc3ccccc23)NC(=O)[C@H](Cc2ccccc2)NC(=O)CSC[C@@H](C(=O)NCC(N)=O)NC(=O)[C@H](CCCCNC(=O)N2CCN(CC(=O)O)CC2)NC(=O)[C@H](Cc2c[nH]cn2)NC(=O)[C@H](Cc2ccc(O)cc2)NC(=O)[C@H](Cc2cccc3ccccc23)NC1=O` [TGFb1_026] ({CH2CO}-F[1Nal]VK([CO-Meglumine])NV[4Pal]DK([CO-Meglumine])[Gly(NCH2CH2Ph)]V[1Nal]YHK([CO-Piperazinyl(4-CH2COOH)])CG-NH2; thioether N-16): the negative-log Kd (pKd) on recombinant human TGF-β1 [1] was 8.99. Moreover, on recombinant human TGF-β1 [2], the inhibition at 62 pM was found to be 6.85%, the inhibition at 0.000185 µM was 17.8%, the inhibition at 0.00056 µM stood at 41.4% and the inhibition at 0.0017 µM is 74.3%. On recombinant human TGF-β1 [2], the inhibition at 0.005 µM turned out to be 93.4% and the inhibition at 0.015 µM was determined as 98%.
For the compound `CC(C)[C@@H]1NC(=O)CN(CCc2ccccc2)C(=O)[C@H](CCCCNC(=O)N(C)C[C@H](O)[C@@H](O)[C@H](O)[C@H](O)CO)NC(=O)[C@H](CC(=O)O)NC(=O)[C@H](Cc2ccncc2)NC(=O)[C@H](C(C)C)NC(=O)[C@H](CC(N)=O)NC(=O)[C@H](C(C)C)NC(=O)[C@H](C(C)C)NC(=O)[C@H](Cc2cccc3ccccc23)NC(=O)[C@H](Cc2ccccc2)NC(=O)CSC[C@@H](C(=O)NCC(N)=O)NC(=O)[C@H](CCCCNC(=O)N2CCN(CC(=O)O)CC2)NC(=O)[C@H](Cc2c[nH]cn2)NC(=O)[C@H](Cc2ccc(O)cc2)NC(=O)[C@H](Cc2cccc3ccccc23)NC1=O` [TGFb1_023] ({CH2CO}-F[1Nal]VVNV[4Pal]DK([CO-Meglumine])[Gly(NCH2CH2Ph)]V[1Nal]YHK([CO-Piperazinyl(4-CH2COOH)])CG-NH2; thioether N-16), the pKd on recombinant human TGF-β1 [1] is 8.98. For the same compound, on recombinant human TGF-β1 [2], the inhibition at 62 pM was found to be 8.58%, the inhibition at 0.000185 µM was 24.4%, the inhibition at 0.00056 µM turned out to be 49.7% and the inhibition at 0.0017 µM is 82.3%. On recombinant human TGF-β1 [2], the inhibition at 0.005 µM is 96% and the inhibition at 0.015 µM was found to be 99.5%.
`CC(C)[C@@H]1NC(=O)CN(CCc2ccccc2)C(=O)[C@H](CC(=O)O)NC(=O)[C@H](CC(=O)O)NC(=O)[C@H](Cc2ccncc2)NC(=O)[C@H](C(C)C)NC(=O)[C@H](CC(N)=O)NC(=O)[C@H](C(C)C)NC(=O)[C@H](C(C)C)NC(=O)[C@H](Cc2cccc3ccccc23)NC(=O)[C@H](Cc2ccccc2)NC(=O)CSC[C@@H](C(=O)NCC(N)=O)NC(=O)[C@H](C(C)C)NC(=O)[C@H](Cc2c[nH]cn2)NC(=O)[C@H](Cc2ccc(O)cc2)NC(=O)[C@H](Cc2cccc3ccccc23)NC1=O` [TGFb1_006] ({CH2CO}-F[1Nal]VVNV[4Pal]DD[Gly(NCH2CH2Ph)]V[1Nal]YHVCG-NH2; thioether N-16): the pKd on recombinant human TGF-β1 [1] is 8.99. Moreover, on recombinant human TGF-β1 [2] (peptide 0.075 nM), the inhibition at 75 pM is 2.8%. Moreover, the inhibition at 0.00075 µM on recombinant human TGF-β1 [2] (peptide 0.75 nM) was found to be 69.3%. Moreover, the inhibition at 0.0075 µM on recombinant human TGF-β1 [2] (peptide 7.5 nM) turned out to be 97.1%. Moreover, at recombinant human TGF-β1 [2] (peptide 75.0 nM), the inhibition at 0.075 µM amounted to 99.7%.
Turning to `CC(C)[C@@H]1NC(=O)CN(CCc2ccccc2)C(=O)[C@H](CCC(=O)O)NC(=O)[C@H](CC(=O)O)NC(=O)[C@H](Cc2ccncc2)NC(=O)[C@H](C(C)C)NC(=O)[C@H](CC(N)=O)NC(=O)[C@H](CCCCNC(=O)N(C)C[C@H](O)[C@@H](O)[C@H](O)[C@H](O)CO)NC(=O)[C@H](C(C)C)NC(=O)[C@H](Cc2cccc3ccccc23)NC(=O)[C@H](Cc2ccccc2)NC(=O)CSC[C@@H](C(=O)NCC(N)=O)NC(=O)[C@H](CCCCNC(=O)N2CCN(CC(=O)O)CC2)NC(=O)[C@H](Cc2c[nH]cn2)NC(=O)[C@H](Cc2ccc(O)cc2)NC(=O)[C@H](Cc2cccc3ccccc23)NC1=O` [TGFb1_024] ({CH2CO}-F[1Nal]VK([CO-Meglumine])NV[4Pal]DE[Gly(NCH2CH2Ph)]V[1Nal]YHK([CO-Piperazinyl(4-CH2COOH)])CG-NH2; thioether N-16), the pKd on recombinant human TGF-β1 [1] is 8.98. Further, on recombinant human TGF-β1 [2], the inhibition at 62 pM stood at 5.79%, the inhibition at 0.000185 µM worked out at 16.6%, the inhibition at 0.00056 µM came to 45% and the inhibition at 0.0017 µM was determined as 80.2%. In addition, on recombinant human TGF-β1 [2], the inhibition at 0.005 µM amounted to 95.5% and the inhibition at 0.015 µM amounted to 98.9%.
Regarding `CC(C)[C@@H]1NC(=O)CN(CCc2ccccc2)C(=O)[C@H](CC(=O)O)NC(=O)[C@H](CC(=O)O)NC(=O)[C@H](Cc2ccncc2)NC(=O)[C@H](C(C)C)NC(=O)[C@H](CC(N)=O)NC(=O)[C@H](CCCCNC(=O)N(C)C[C@H](O)[C@@H](O)[C@H](O)[C@H](O)CO)NC(=O)[C@H](C(C)C)NC(=O)[C@H](Cc2cccc3ccccc23)NC(=O)[C@H](Cc2ccccc2)NC(=O)CSC[C@@H](C(=O)NCC(N)=O)NC(=O)[C@H](CCCCNC(=O)N2CCN(CC(=O)O)CC2)NC(=O)[C@H](Cc2c[nH]cn2)NC(=O)[C@H](Cc2ccc(O)cc2)NC(=O)[C@H](Cc2cccc3ccccc23)NC1=O` [TGFb1_020] ({CH2CO}-F[1Nal]VK([CO-Meglumine])NV[4Pal]DD[Gly(NCH2CH2Ph)]V[1Nal]YHK([CO-Piperazinyl(4-CH2COOH)])CG-NH2; thioether N-16), the negative-log Kd (pKd) at recombinant human TGF-β1 [1] was 8.90. At recombinant human TGF-β1 [2], the inhibition at 62 pM worked out at 8.5%, the inhibition at 0.000185 µM turned out to be 15.8%, the inhibition at 0.00056 µM came out at 36.3% and the inhibition at 0.0017 µM was 70.4%. In addition, at recombinant human TGF-β1 [2], the inhibition at 0.005 µM was found to be 89.3% and the inhibition at 0.015 µM amounted to 96.9%.
With `CC(C)[C@@H]1NC(=O)CN(CCc2ccccc2)C(=O)[C@H](CCCCNC(=O)N2CCN(CC(=O)O)CC2)NC(=O)[C@H](CC(=O)O)NC(=O)[C@H](Cc2ccncc2)NC(=O)[C@H](C(C)C)NC(=O)[C@H](CC(N)=O)NC(=O)[C@H](C(C)C)NC(=O)[C@H](C(C)C)NC(=O)[C@H](Cc2cccc3ccccc23)NC(=O)[C@H](Cc2ccccc2)NC(=O)CSC[C@@H](C(=O)NCC(N)=O)NC(=O)[C@H](CCCCNC(=O)N2CCN(CC(=O)O)CC2)NC(=O)[C@H](Cc2c[nH]cn2)NC(=O)[C@H](Cc2ccc(O)cc2)NC(=O)[C@H](Cc2cccc3ccccc23)NC1=O` [TGFb1_022] ({CH2CO}-F[1Nal]VVNV[4Pal]DK([CO-Piperazinyl(4-CH2COOH)])[Gly(NCH2CH2Ph)]V[1Nal]YHK([CO-Piperazinyl(4-CH2COOH)])CG-NH2; thioether N-16), the negative logarithm of the Kd (pKd) at recombinant human TGF-β1 [1] is 9.04. In addition, on recombinant human TGF-β1 [2], the inhibition at 62 pM amounted to 6.49%, the inhibition at 0.000185 µM is 20.8%, the inhibition at 0.00056 µM was found to be 53.8% and the inhibition at 0.0017 µM was found to be 85.2%. Besides, on recombinant human TGF-β1 [2], the inhibition at 0.005 µM worked out at 97.1% and the inhibition at 0.015 µM turned out to be 99.5%.

Source of the values: patent publication US20250034212A1, “PEPTIDE” (PEPTIDREAM INC., priority 2021, published 2025).
